Laboratory results published in patent publication US8575136B2, “2-methylene-1α-hydroxy-18,19,21-trinorvitamin D3 analogs and uses thereof” (Wisconsin Alumni Research Foundation, priority 2006, dated 2013).
“Also recorded” adds a separate entry of the source.

What was measured:
[1] = Intestinal calcium transport (everted gut sac method); set-up: species or system Sprague-Dawley rats; details: in vivo, rats, ip doses; FIG. 3
Method: (§1) Male, weanling Sprague-Dawley rats were placed on Diet 11 (0.47% Ca) diet+AEK for one week followed by Diet 11 (0.02% Ca)+AEK for 3 weeks. The rats were then switched to a diet containing 0.47% Ca for one week followed by two weeks on a diet containing 0.02% Ca. Dose administration began during the last week on 0.02% calcium diet. Four consecutive ip doses were given approximately 24 hours apart. Twenty-four hours after the last dose, blood was collected from the severed neck and the concentration of serum calcium determined as a measure of bone calcium mobilization. The first 10 cm of the intestine was also collected for intestinal calcium transport analysis using the everted gut sac method. The everted gut sac assay was carried out as previously described by Martin and Deluca, Am. J. Physiol. 216, 1351 (1969); (DeLuca et al., U.S. Pat. No. 4,188,345), which are incorporated by reference as if fully set forth herein.
Both control and test articles are administered by intraperitoneal injection in 100 microliters for 4-7 consecutive days spaced approximately 24 hours apart.

[2] = test system: HL-60 cells; test: HL-60 differentiation (nitro blue tetrazolium reduction); format: cell-based, human; details: compared to 1α,25-dihydroxyvitamin D3; FIG. 4
Method: The study drugs were dissolved in ethanol and the concentrations determined using UV spectrophotometry. Serial dilutions were prepared so that a range of drug concentrations could be tested without changing the final concentration of ethanol (<0.2%) present in the cell cultures.
Human promyelocytic leukemia (HL60) cells were grown in RPMI-1640 medium containing 10% fetal bovine serum. The cells were incubated at 37° C. in the presence of 5% CO2.
HL60 cells were plated at 1.2×10^5 cells/ml. Eighteen hours after plating, cells in duplicate were treated with drug. Four days later, the cells were harvested and a nitro blue tetrazolium reduction assay was performed (Collins et al., 1979; J. Exp. Med. 149:969-974). The percentage of differentiated cells was determined by counting a total of 200 cells and recording the number that contained intracellular black-blue formazan deposits. Verification of differentiation to monocytic cells was determined by measuring phagocytic activity (data not shown).

[3] = test system: 24-hydyroxylase (24Ohase) gene promoter upstream of a luciferase reporter gene in ROS 17/2.8 (bone) cells; test: In vitro transcription assay (luciferase reporter); format: cell-based; details: Ros17/2.8 (bone) cells, compared to 1α,25-dihydroxyvitamin D3; FIG. 5
Method: Transcription activity was measured in ROS 17/2.8 (bone) cells that were stably transfected with a 24-hydyroxylase (24Ohase) gene promoter upstream of a luciferase reporter gene (Arbour et al., 1998). Cells were given a range of doses. Sixteen hours after dosing the cells were harvested and luciferase activities were measured using a luminometer. (RLU=relative luciferase units)

[4] = target: T1, full-length recombinant rat vitamin D receptor (Rattus norvegicus, UniProt P13053); test: Vitamin D receptor binding, competition with [3H]-1,25-(OH)2-D3; details: compared to 1α,25-dihydroxyvitamin D3; FIG. 1
T1 construct: Full-length recombinant rat receptor was expressed in E. coli BL21(DE3) Codon Plus RIL cells; histidine tag (C); made in house; host or cells: E. coli BL21(DE3) Codon Plus RIL
T1 sequence (P13053 1-423): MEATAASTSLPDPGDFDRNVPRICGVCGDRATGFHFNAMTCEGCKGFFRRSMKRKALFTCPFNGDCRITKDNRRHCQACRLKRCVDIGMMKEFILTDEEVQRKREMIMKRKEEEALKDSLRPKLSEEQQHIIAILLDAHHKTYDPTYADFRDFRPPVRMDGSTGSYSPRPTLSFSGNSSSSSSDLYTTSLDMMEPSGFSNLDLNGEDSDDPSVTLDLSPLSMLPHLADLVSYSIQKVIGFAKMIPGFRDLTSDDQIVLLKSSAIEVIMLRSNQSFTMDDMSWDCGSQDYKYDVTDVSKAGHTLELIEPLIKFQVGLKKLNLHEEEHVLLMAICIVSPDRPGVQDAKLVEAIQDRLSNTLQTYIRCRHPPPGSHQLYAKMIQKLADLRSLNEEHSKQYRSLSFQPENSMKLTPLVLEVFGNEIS
Method: Full-length recombinant rat receptor was expressed in E. coli BL21(DE3) Codon Plus RIL cells and purified to homogeneity using two different column chromatography systems. The first system was a nickel affinity resin that utilizes the C-terminal histidine tag on this protein. The protein that was eluted from this resin was further purified using ion exchange chromatography (S-Sepharose Fast Flow). Aliquots of the purified protein were quick frozen in liquid nitrogen and stored at −80° C. until use. For use in binding assays, the protein was diluted in TEDK50 (50 mM Tris, 1.5 mM EDTA, pH7.4, 5 mM DTT, 150 mM KCl) with 0.1% Chaps detergent. The receptor protein and ligand concentration was optimized such that no more than 20% of the added radiolabeled ligand was bound to the receptor.
Radiolabeled ligand (^3H-1,25(OH)2D3, ˜159 Ci/mmole) was added in ethanol at a final concentration of 1 nM.
Radiolabeled and unlabeled ligands were added to 100 mcl of the diluted protein at a final ethanol concentration of <10%, mixed and incubated overnight on ice to reach binding equilibrium. The following day, 100 mcl of hydroxylapatite slurry (50%) was added to each tube and mixed at 10-minute intervals for 30 minutes. […] Total binding was determined from the tubes containing only radiolabeled ligand.

[5] = Bone calcium mobilization (serum calcium); set-up: species or system Sprague-Dawley rats; details: in vivo, rats, ip doses; FIG. 2
Method: as §1, with “herein. […]” for “herein.”
Twenty-four hours after the final dose, approximately 1 ml of blood is allowed to coagulate at room temperature and then centrifuged at 3000×g for 15 minutes. […] The level of calcium is determined by diluting the serum into 0.1% lanthum chloride and measuring the absorbance on an atomic absorption spectrophotometer (Perkin Elmer Model 3110, Shelton, Conn.).

C=C1[C@H](O)CC(=C/C=C2\CCC[C@@H]3[C@@H](CCCCC(C)C)CC[C@@H]23)C[C@H]1O [SX-99, 2-methylene-1α-hydroxy-18,19,21-trinorvitamin D3]
intestinal calcium transport activity [1]: potent calcium transport activity; also recorded: significant intestinal calcium transport activity | inducing differentiation of HL-60 cells [2]: slightly less active; also recorded: relatively high cell differentiation activity | stimulating transcription of a reporter gene [3]: less active | binding to the recombinant vitamin D receptor [4]: considerably less active; also recorded: relatively high binding | bone calcium mobilization activity [5]: significant bone calcium mobilization activity; also recorded: good ability to mobilize calcium from bone
